In the NIST ThermoML archive (doi:10.1021/je300938w):

Key:
[1] = wn = mass fraction of the nth substance listed; settings: 101 kPa, Liquid; for viscosity: Concentric cylinders viscometry; for mass density: Vibrating tube method
[2] = refractive index (Na D-line) (dimensionless); wn = mass fraction of the nth substance listed; settings: 101 kPa, Liquid, Standard Abbe refractometry

CC(O)CNCC(C)O (stereo not given) [N-(2-hydroxypropyl)-2-hydroxy-1-propanamine] + O
Settings	mass density, [1] [kg/m3]	refractive index, [2]	viscosity, [1] [mPa·s]
298.15 K, w1 = 0.05	1000.6	1.34052	1.117
298.15 K, w1 = 0.1	1003.53	1.34766	1.394
298.15 K, w1 = 0.15	1006.99	1.35486	1.814
298.15 K, w1 = 0.2	1010.4	1.3621	2.288
298.15 K, w1 = 0.25	1014.1	1.36925	3.026
303.15 K, w1 = 0.05	999.133	1.33988	0.9968
303.15 K, w1 = 0.1	1001.97	1.34693	1.228
303.15 K, w1 = 0.15	1005.27	1.35421	1.569
303.15 K, w1 = 0.2	1008.5	1.3613	1.952
303.15 K, w1 = 0.25	1011.98	1.36822	2.539
308.15 K, w1 = 0.05	997.454	1.33919	0.8984
308.15 K, w1 = 0.1	1000.19	1.34623	1.093
308.15 K, w1 = 0.15	1003.35	1.35332	1.38
308.15 K, w1 = 0.2	1006.41	1.36036	1.695
308.15 K, w1 = 0.25	1009.69	1.36736	2.167
313.15 K, w1 = 0.05	995.576	1.33844	0.8189
313.15 K, w1 = 0.1	998.214	1.34533	0.9814
313.15 K, w1 = 0.15	1001.24	1.35237	1.224
313.15 K, w1 = 0.2	1004.14	1.35947	1.485
313.15 K, w1 = 0.25	1007.23	1.36641	1.871
318.15 K, w1 = 0.05	993.508	1.33755	0.7442
318.15 K, w1 = 0.1	996.055	1.3445	0.8856
318.15 K, w1 = 0.15	998.951	1.35149	1.095
318.15 K, w1 = 0.2	1001.71	1.35838	1.313
318.15 K, w1 = 0.25	1004.62	1.36537	1.633
323.15 K, w1 = 0.05	991.263	1.33675	0.6884
323.15 K, w1 = 0.1	993.722	1.34355	0.8047
323.15 K, w1 = 0.15	996.497	1.35044	0.9924
323.15 K, w1 = 0.2	999.106	1.35739	1.171
323.15 K, w1 = 0.25	1001.86	1.36423	1.438
328.15 K, w1 = 0.05	988.852	1.33566	0.6407
328.15 K, w1 = 0.1	991.224	1.34256	0.7357
328.15 K, w1 = 0.15	993.882	1.3494	0.9053
328.15 K, w1 = 0.2	996.358	1.35615	1.052
328.15 K, w1 = 0.25	998.953	1.36294	1.278
333.15 K, w1 = 0.05	986.277	1.33467	0.5833
333.15 K, w1 = 0.1	988.56	1.34147	0.6793
333.15 K, w1 = 0.15	991.114	1.34831	0.8324
333.15 K, w1 = 0.2	993.463	1.35501	0.9512
333.15 K, w1 = 0.25	995.91	1.36175	1.145
338.15 K, w1 = 0.05	983.349	1.33363	0.5507
338.15 K, w1 = 0.1	985.762	1.34037	0.6341
338.15 K, w1 = 0.15	988.199	1.34702	0.7693
338.15 K, w1 = 0.2	990.404	1.35377	0.8643
338.15 K, w1 = 0.25	992.735	1.36051	1.032
343.15 K, w1 = 0.05	980.387	1.33224	0.5267
343.15 K, w1 = 0.1	982.81	1.33899	0.6006
343.15 K, w1 = 0.15	985.138	1.34583	0.725
343.15 K, w1 = 0.2	987.241	1.35253	0.8146
343.15 K, w1 = 0.25	989.434	1.35922	0.9579

OCCNCCO [diethanolamine] + O
Settings	mass density, [1] [kg/m3]	refractive index, [2]	viscosity, [1] [mPa·s]
298.15 K, w1 = 0.05	1003.46	1.3394	1.059
298.15 K, w1 = 0.1	1009.09	1.34654	1.27
298.15 K, w1 = 0.15	1014.94	1.35439	1.503
298.15 K, w1 = 0.2	1020.92	1.36184	1.893
298.15 K, w1 = 0.25	1027.11	1.37017	2.376
303.15 K, w1 = 0.05	1001.98	1.33875	0.9498
303.15 K, w1 = 0.1	1007.53	1.34585	1.129
303.15 K, w1 = 0.15	1013.27	1.35368	1.319
303.15 K, w1 = 0.2	1019.14	1.36108	1.649
303.15 K, w1 = 0.25	1025.19	1.36935	2.05
308.15 K, w1 = 0.05	1000.3	1.33801	0.8569
308.15 K, w1 = 0.1	1005.77	1.34511	1.013
308.15 K, w1 = 0.15	1011.42	1.35288	1.174
308.15 K, w1 = 0.2	1017.18	1.36028	1.455
308.15 K, w1 = 0.25	1023.11	1.36847	1.795
313.15 K, w1 = 0.05	998.43	1.3372	0.7792
313.15 K, w1 = 0.1	1003.83	1.34427	0.9142
313.15 K, w1 = 0.15	1009.39	1.35208	1.051
313.15 K, w1 = 0.2	1015.05	1.35939	1.295
313.15 K, w1 = 0.25	1020.89	1.36756	1.585
318.15 K, w1 = 0.05	996.373	1.33633	0.7137
318.15 K, w1 = 0.1	1001.71	1.3434	0.8307
318.15 K, w1 = 0.15	1007.2	1.35122	0.948
318.15 K, w1 = 0.2	1012.78	1.35862	1.161
318.15 K, w1 = 0.25	1018.51	1.36659	1.411
323.15 K, w1 = 0.05	994.141	1.33539	0.653
323.15 K, w1 = 0.1	999.439	1.34245	0.7593
323.15 K, w1 = 0.15	1004.85	1.35028	0.8599
323.15 K, w1 = 0.2	1010.35	1.35777	1.048
323.15 K, w1 = 0.25	1016	1.36557	1.266
328.15 K, w1 = 0.05	991.746	1.33442	0.6017
328.15 K, w1 = 0.1	996.992	1.34148	0.6969
328.15 K, w1 = 0.15	1002.36	1.34935	0.7836
328.15 K, w1 = 0.2	1007.78	1.3568	0.9519
328.15 K, w1 = 0.25	1013.36	1.36453	1.141
333.15 K, w1 = 0.05	989.2	1.3334	0.5596
333.15 K, w1 = 0.1	994.401	1.34044	0.643
333.15 K, w1 = 0.15	999.713	1.3485	0.7178
333.15 K, w1 = 0.2	1005.07	1.35582	0.8673
333.15 K, w1 = 0.25	1010.55	1.36354	1.037
338.15 K, w1 = 0.05	986.501	1.33234	0.5269
338.15 K, w1 = 0.1	991.668	1.33938	0.5932
338.15 K, w1 = 0.15	996.929	1.34755	0.6619
338.15 K, w1 = 0.2	1002.23	1.3547	0.799
338.15 K, w1 = 0.25	1007.44	1.36244	0.9543
343.15 K, w1 = 0.05	983.659	1.33122	0.5002
343.15 K, w1 = 0.1	988.796	1.3382	0.5534
343.15 K, w1 = 0.15	993.878	1.34633	0.6185
343.15 K, w1 = 0.2	999.25	1.35356	0.7459
343.15 K, w1 = 0.25	1004.41	1.3614	0.8922
